Assay results from ChEMBL document CHEMBL1152786, “Designed DNA probes from the neocarzinostatin family: impact of glycosyl linkage stereochemistry on bulge base binding” (Bioorg Med Chem, 2009).

Assays:
[1] = Binding affinity to DA12:BA14 sequence of bulge DNA by fluorescence quenching
HT4AGTT bulged DNA = test: Binding affinity to HT4AGTT sequence of bulge DNA by fluorescence quenching
[2] = Binding affinity to HT3AGTT sequence of bulge DNA by fluorescence quenching
[3] = Binding affinity to HT3AGT sequence of bulge DNA by fluorescence quenching
[4] = Binding affinity to HT3AT sequence of bulge DNA by fluorescence quenching
[5] = Binding affinity to HT3AGTA sequence of bulge DNA by fluorescence quenching
[6] = Binding affinity to HT3AGCTT sequence of bulge DNA by fluorescence quenching
Nucleic Acid = test: Binding affinity to DA12:DAc12 oligomer sequence of bulge DNA by fluorescence quenching; assay type: nucleic-acid assay

Row | Structure (SMILES) | Kd [1] [µM] | Kd (HT4AGTT bulged DNA) [µM] | Kd [2] [µM] | Kd [3] [µM] | Kd [4] [µM] | Kd [5] [µM] | Kd [6] [µM] | Kd (Nucleic Acid) [µM]
1 | CN[C@H]1[C@H](O[C@H]2c3cc4ccccc4cc3[C@H]3[C@@H]2C=C[C@]32C(=O)C=Cc3ccc(OC)cc32)O[C@H](C)[C@H](O)[C@@H]1O | 0.4 | 0.19 | 0.2 | 14 | 8.2 | 0.39 | 1.8 | 
2 | CN[C@H]1[C@H](O[C@@H]2c3cc4c(cc3[C@@H]3[C@H]2OC(=O)[C@@]32C(=O)C=Cc3c(C)cc(OC)cc32)[C@@](O)([C@H]2COC(=O)O2)C=C4)O[C@@H](C)[C@H](O)[C@@H]1O | 2.18 | 0.026 | 0.033 | 20.6 | 10 | 12.5 | 0.71 | 307
3 | CN[C@H]1[C@@H](O[C@H]2c3cc4ccccc4cc3[C@H]3[C@@H]2C=C[C@]32C(=O)C=Cc3ccc(OC)cc32)O[C@H](C)[C@H](O)[C@@H]1O | 0.6 | 0.11 | 0.08 | 8.4 | 10 | 0.22 | 2.1 | 

Other lines, results leading:

Row | Kd [1] [µM] | Kd (HT4AGTT bulged DNA) [µM] | Kd [2] [µM] | Kd [3] [µM] | Kd [4] [µM] | Kd [5] [µM] | Kd [6] [µM] | Kd (Nucleic Acid) [µM] | Structure (SMILES)
4 | 0.43 | 1.5 | 1.6 | 5.5 | 9.2 | 0.44 | 1.95 |  | CN[C@H]1[C@H](O[C@@H]2c3cc4ccccc4cc3[C@@H]3[C@H]2C=C[C@@]32C(=O)C=Cc3ccc(OC)cc32)O[C@H](C)[C@H](O)[C@@H]1O
5 | 0.8 | 0.24 | 0.13 | 4.1 | 13 | 1.4 | 1.7 |  | CN[C@H]1[C@@H](O[C@@H]2c3cc4ccccc4cc3[C@@H]3[C@H]2C=C[C@@]32C(=O)C=Cc3ccc(OC)cc32)O[C@H](C)[C@H](O)[C@@H]1O
